Drawing on the supplement of paper PMC10307832, this text covers relative viability for one cell line.

Experiment in all cases: relative viability (nuclei count vs DMSO), 5 days (fraction); higher = more cells survive
Compound in experiment [1]: C1COCCN1C2=NC(=NC3=C2OC4=C3C=CC=N4)C5=CC(=CC=C5)NC(=O)C6=CN=C(C=C6)N + CC(=O)Nc1cccc(-n2c(=O)n(C3CC3)c(=O)c3c(Nc4ccc(I)cc4F)n(C)c(=O)c(C)c32)c1 [Trametinib] (partner 0.02 µM)
The procedure, abridged:
(§1)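 After 5 days of treatment, lung cancer cells in 1536-well plates were fixed and stained in a single step (final 0.05% Triton X-100, 1% formaldehyde, 1 ug/ml Hoechst) and their nuclei counted on 4× images. Treatment had been applied by pin tool the day after seeding as one drug alone or as a fixed anchor-drug dose with five library-drug doses (not always all listed) in √10 steps. Relative viability is the nuclei count of treated wells divided by that of vehicle wells, and values are medians of duplicate plates.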

Compound in the experiment “Entinostat + Alpelisib”: Nc1ccccc1NC(=O)c1ccc(CNC(=O)OCc2cccnc2)cc1 [Entinostat] + Cc1nc(NC(=O)N2CCC[C@H]2C(N)=O)sc1-c1ccnc(C(C)(C)C(F)(F)F)c1 [Alpelisib] (partner 2 µM)
Summed up:
as §1

Compound in the experiment “SGI-1776 + Luminespib”: CN1CCC(CNc2ccc3ncc(-c4cccc(OC(F)(F)F)c4)n3n2)CC1 [SGI-1776] + CCNC(=O)c1noc(-c2cc(C(C)C)c(O)cc2O)c1-c1ccc(CN2CCOCC2)cc1 [Luminespib] (partner 0.01 µM)
Summed up: as §1

Compound in the experiment “Entinostat + Trametinib”: Nc1ccccc1NC(=O)c1ccc(CNC(=O)OCc2cccnc2)cc1 [Entinostat] + CC(=O)Nc1cccc(-n2c(=O)n(C3CC3)c(=O)c3c(Nc4ccc(I)cc4F)n(C)c(=O)c(C)c32)c1 [Trametinib] (partner 0.02 µM)
The procedure, abridged:
as §1

In the case of UMC-11, the relative viability in experiment [1] (first compound 0.02 µM) was determined as 0.733; in experiment [1] (first compound 0.06325 µM), 0.809; in experiment [1] (first compound 0.2 µM) it was 0.572; in experiment [1] (first compound 0.6325 µM), 0.706; in experiment [1] (first compound 2 µM), 0.614; with Entinostat + Alpelisib (first compound 0.02 µM) it was 1.12. In addition, the relative viability with Entinostat + Alpelisib (first compound 0.06325 µM) was 1.01; with Entinostat + Alpelisib (first compound 0.2 µM) it was 0.702; in the experiment with Entinostat + Alpelisib (first compound 0.6325 µM) it was 0.168; with Entinostat + Alpelisib (first compound 2 µM), 0.116; with SGI-1776 + Luminespib (first compound 0.08 µM) it was 1.02; with SGI-1776 + Luminespib (first compound 0.8 µM), 0.971. The relative viability with SGI-1776 + Luminespib (first compound 2.53 µM) is 0.899; with SGI-1776 + Luminespib (first compound 8 µM) it was 0.862; in the experiment with Entinostat + Trametinib (first compound 0.02 µM), 0.736; in the experiment with Entinostat + Trametinib (first compound 0.06325 µM) it was 0.895; in the experiment with Entinostat + Trametinib (first compound 0.2 µM), 0.554; in the experiment with Entinostat + Trametinib (first compound 0.6325 µM) it was 0.163. In addition, the relative viability with Entinostat + Trametinib (first compound 2 µM) is 0.142.
